# Measurements reported in patent US20110065632A1, “PHARMACEUTICAL COMPOSITIONS OF SOMATOSTATIN-DOPAMINE CONJUGATES” (priority 2008, published 2011).
# Like-named read-outs stand apart in the source and are kept apart here. Numbered stars: 1 amine (or outer) side, 2 acyl side, 3 side chain; on linkers, the order of the positions; unused ones are H or OH. Bridge positions count the residues as written; N and C are the ends. Square brackets hold non-standard residues; d marks the D form. Peptide text beside a SMILES is read from it. * marks the point of attachment. X1 = CCCN1C[C@H](CSCC(=O)*)C[C@@H]2c3cccc4[nH]cc(c34)C[C@H]21; X2 = CN1C[C@H](CSCC(=O)*)C[C@@H]2c3cccc4[nH]cc(c34)C[C@H]21; Pipz(1-CH2CO,4-CH2CH2NH) = O=C(CN1CCN(CCN[*:1])CC1)[*:2]; Abu = CC[C@H](N)C(=O)O
# How the values were obtained:
# hsst3 = biological target: T1, hsst3 (Homo sapiens, UniProt P32745); assay: Somatostatin receptor radioligand binding assay, hsst3
# T1 construct: expressed in transfected cells
# Method: (§1) Specificity and selectivity of the somatostatin analogues used to synthesize the somatostatin-dopamine chimers were determined by a radioligand binding assay on CHO-K1 cells stably transfected with each of the SSTR subtypes, as follows. Somatostatin analogs are also described in U.S. Patent Application Publication No. 02210006790. The complete coding sequences of genomic fragments of the SSTR 1 (e.g., Genbank accession No. M81829), SSTR 2 (e.g., Genbank accession No. M81830), SSTR 3 (e.g., Genbank accession No. L07062), and SSTR 4 (e.g., Genbank accession No. AL049651) genes and a cDNA clone for SSTR 5 (e.g., Genbank accession No. D16827) was subcloned into the mammalian expression vector pCMV (Life Technologies, Milano, Italy). Other SSTR sequences are known to the skilled artisan. Clonal cell lines stably expressing SSTR's 1-5 were obtained by transfection into CHO-K1 cells (ATCC, Manassas, Va., USA) using the calcium phosphate co-precipitation method (Davis L, et al., 1994 In: Basic methods in Molecular Biology, 2nd edition, Appleton & Lange, Norwalk, Conn., USA: 611-646). The plasmid pRSV-neo (ATCC) was included as a selectable marker. Clonal cell lines were selected in RPMI 1640 media containing 0.5 mg/mL of G418 (Life Technologies, Milano, Italy), ring cloned, and expanded into culture.
# (§2) Membranes for in vitro receptor binding assays were obtained by homogenizing the CHO-K1 cells expressing the SSTR's subtypes in ice-cold 50 mM Tris-HCl and centrifuging twice at 39,000 g (10 min), with an intermediate resuspension in fresh buffer. The final pellets were resuspended in 10 mM Tris-HCl for assay.
# (§3) For the SSTR 1, 3, 4, and 5 assays, aliquots of the membrane preparations were incubated 90 minutes at 25° C. with 0.05 nM [^125I-Tyr11]SS-14 in 50 mM HEPES (pH 7.4) containing 10 mg/mL BSA, 5 mM MgCl2, 200 KIU/mL Trasylol, 0.02 mg/mL bacitracin, and 0.02 mg/mL phenylmethylsuphonyl fluoride. The final assay volume was 0.3 mL.
# (§4) For the SSTR 2 assay, 0.05 nM [^125I]MK-678 was employed as the radioligand and the incubation time was 90 minutes at 25° C. The incubations were terminated by rapid filtration through GF/C glass microfiber filters (Whatman Co.) (pre-soaked in 0.3% polyethylenimine) using a BRANDEL filtration manifold. Each tube and filter was washed three times with 5 mL aliquots of ice-cold buffer. Specific binding was defined as the total radioligand bound minus that bound in the presence of 1000 nM SS-14 for SSTR 1, 3, 4, and 5, or 1000 nM MK-678 for SSTR2.
# (§5) Using the discussed assays, the inhibition constants (Ki) for the five human somatostatin receptors (hSSTR1-hSSTR5) and the dopamine-2 receptor (hUTII and hDA2) were measured for the exemplified somatostatin-dopamine conjugates, as follows: […]
# hsst5 = biological target: T2, hsst5 (Homo sapiens, UniProt P35346); assay: Somatostatin receptor radioligand binding assay, hsst5; conditions: CHO-K1 membranes, [125I-Tyr11]SS-14
# T2 construct: expressed in transfected cells
# Method: as §1, §2, §3, §4
# hsst2 = biological target: T3, hsst2 (Homo sapiens, UniProt P30874); assay: Somatostatin receptor radioligand binding assay, hsst2; conditions: CHO-K1 membranes, [125I]MK-678; read-out: hsst2 Ki
# T3 construct: expressed in transfected cells
# Method: as §1, §2, §4
# hsst1 = biological target: T4, hsst1 (Homo sapiens, UniProt P30872); assay: Somatostatin receptor radioligand binding assay, hsst1
# T4 construct: expressed in transfected cells
# Method: as §1, §2, §3, §4, §5
# hUTII = biological target: T5, hUTII (Homo sapiens, UniProt Q9UKP6); assay: hUTII inhibition constant; format: binding; conditions: read-out: hUTII Ki
# T5 sequence (Q9UKP6 1-389): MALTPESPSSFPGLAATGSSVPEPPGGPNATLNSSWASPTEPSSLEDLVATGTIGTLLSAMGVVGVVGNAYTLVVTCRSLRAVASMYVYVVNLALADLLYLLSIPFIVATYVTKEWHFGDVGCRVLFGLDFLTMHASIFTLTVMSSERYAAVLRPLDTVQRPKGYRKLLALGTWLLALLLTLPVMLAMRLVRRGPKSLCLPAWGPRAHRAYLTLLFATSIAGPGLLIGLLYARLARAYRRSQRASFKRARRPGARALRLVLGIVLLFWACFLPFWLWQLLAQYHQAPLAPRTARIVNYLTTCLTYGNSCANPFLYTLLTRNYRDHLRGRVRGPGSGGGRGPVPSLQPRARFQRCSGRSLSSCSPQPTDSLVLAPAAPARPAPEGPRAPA
# Method: as §5
# hDA2 = assay: Dopamine-2 receptor radioligand binding assay; parameters: species or system human; conditions: [3H]spiperone
# Method: Specificity and selectivity for the dopamine-2 receptor of the dopamine analogues used to synthesize the somatostatin-dopamine chimers may be determined by a radioligand binding assay as follows.
# Crude membranes were prepared by homogenization of frozen rat corpus striatum (Zivic Laboratories, Pittsburgh, Pa., USA) in 20 mL of ice-cold 50 mM Tris-HCl with a Brinkman Polytron cell disrupter (setting 6, 15 sec). Buffer was added to obtain a final volume of 40 mL, and the homogenate was centrifuged in a Sorval SS-34 rotor at 39,000 g for 10 minutes at 0-4° C. The resulting supernatant was decanted and discarded. The pellet was rehomogenized in ice-cold buffer, pre-incubated at 37° C. for 10 min, diluted, and centrifuged as before. The final pellet was resuspended in buffer and held on ice for the receptor binding assay.
# For assay, aliquots of the washed membrane preparations and test compounds were incubated for 15 minutes (37° C.) with 0.25 nM [^3HI]spiperone (16.5 Ci.mmol, New England Nuclear, Boston, Mass., USA) in 50 mM Tris HCl, 120 mM NaCl, 5 mM KCl, 2 mM CaCl2, 1 mM MgCl2. The final assay volume was 1.0 mL. The incubations were terminated by rapid filtration through GF/B glass fibre filters using a Brandel filtration manifold. Each tube and filter was then washed three times with 5-mL aliquots of ice-cold buffer. Specific binding was defined as the total radioligand bound minus that bound in the presence of 1000 nM (+) butaclamol.
# as §5
# [1] = CHO-K1 membranes, [125I-Tyr11]SS-14, read-out: hsst3 Ki
# [2] = CHO-K1 membranes, [125I-Tyr11]SS-14, read-out: hsst1 Ki
# T2 sequence (P35346 whole entry): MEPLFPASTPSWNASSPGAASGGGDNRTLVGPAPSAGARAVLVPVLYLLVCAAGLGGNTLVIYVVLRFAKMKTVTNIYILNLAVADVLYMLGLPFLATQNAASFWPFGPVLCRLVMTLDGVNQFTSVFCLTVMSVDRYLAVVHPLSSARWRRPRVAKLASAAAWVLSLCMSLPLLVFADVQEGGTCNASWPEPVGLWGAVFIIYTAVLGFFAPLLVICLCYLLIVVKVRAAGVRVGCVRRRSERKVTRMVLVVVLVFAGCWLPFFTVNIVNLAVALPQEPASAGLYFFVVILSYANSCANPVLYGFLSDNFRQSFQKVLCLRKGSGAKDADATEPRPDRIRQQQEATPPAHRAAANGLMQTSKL
# T4 sequence (P30872 whole entry): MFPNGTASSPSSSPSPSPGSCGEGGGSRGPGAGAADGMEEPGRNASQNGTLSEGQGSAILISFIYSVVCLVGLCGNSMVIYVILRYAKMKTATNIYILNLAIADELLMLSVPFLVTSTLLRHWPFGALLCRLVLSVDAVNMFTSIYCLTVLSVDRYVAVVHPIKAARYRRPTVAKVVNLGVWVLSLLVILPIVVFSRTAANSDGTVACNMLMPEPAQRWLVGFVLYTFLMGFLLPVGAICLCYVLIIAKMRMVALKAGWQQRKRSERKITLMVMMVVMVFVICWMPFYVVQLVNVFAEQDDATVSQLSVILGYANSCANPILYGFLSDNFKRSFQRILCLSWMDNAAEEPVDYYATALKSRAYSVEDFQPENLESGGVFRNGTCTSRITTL
# T3 sequence (P30874 whole entry): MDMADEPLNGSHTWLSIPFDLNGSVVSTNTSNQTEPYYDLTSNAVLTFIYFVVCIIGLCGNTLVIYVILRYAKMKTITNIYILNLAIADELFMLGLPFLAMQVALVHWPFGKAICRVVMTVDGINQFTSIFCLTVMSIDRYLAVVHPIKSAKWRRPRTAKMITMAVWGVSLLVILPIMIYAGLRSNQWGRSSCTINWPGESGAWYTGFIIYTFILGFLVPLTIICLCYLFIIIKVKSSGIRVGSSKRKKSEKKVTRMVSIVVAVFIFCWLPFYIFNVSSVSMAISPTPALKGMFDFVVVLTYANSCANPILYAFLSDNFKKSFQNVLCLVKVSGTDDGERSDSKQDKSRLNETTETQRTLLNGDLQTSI
# T1 sequence (P32745 whole entry): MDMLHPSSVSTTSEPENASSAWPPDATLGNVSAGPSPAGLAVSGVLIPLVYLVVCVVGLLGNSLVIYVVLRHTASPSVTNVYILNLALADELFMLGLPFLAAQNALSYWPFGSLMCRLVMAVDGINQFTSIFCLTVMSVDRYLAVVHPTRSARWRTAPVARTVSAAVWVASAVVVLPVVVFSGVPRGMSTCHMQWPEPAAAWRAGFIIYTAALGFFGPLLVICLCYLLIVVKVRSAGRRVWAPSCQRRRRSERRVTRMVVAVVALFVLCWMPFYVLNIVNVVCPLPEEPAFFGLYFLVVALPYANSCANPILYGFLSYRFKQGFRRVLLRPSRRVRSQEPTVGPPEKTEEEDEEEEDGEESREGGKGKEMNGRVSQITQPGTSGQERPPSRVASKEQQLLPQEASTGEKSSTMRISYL
Ki (hsst3; [1]) [nM],Ki (hsst5; read-out: hsst5 Ki) [nM],Ki (hsst2) [nM],Ki (hsst1; [2]) [nM],Ki (hUTII) [nM],Ki (hDA2) [nM],SMILES,Ki (hsst3) [nM],Ki (hsst5; hsst5 Ki) [nM],Ki (hsst1) [nM]
162,8.91,0.04,437,64.4,119,CCCN1C[C@H](CSCC(=O)NCCCC[C@H](NC(C)=O)C(=O)N[C@H](Cc2ccc(O)cc2)C(=O)N[C@H](Cc2ccc(O)cc2)C(=O)N[C@H]2CSSC[C@@H](C(=O)N[C@H](C(N)=O)[C@@H](C)O)NC(=O)[C@H](CC)NC(=O)[C@H](CCCCN)NC(=O)[C@@H](Cc3c[nH]c4ccccc34)NC(=O)[C@H](Cc3ccc(O)cc3)NC2=O)C[C@@H]2c3cccc4[nH]cc(c34)C[C@H]21 [Example 11] (Ac-K(X1)[dY][dY]CY[dW]K[Abu]CT-NH2; disulfide 4-9),–,–,–
51.5,4.1,–,602,676,25.2,CCCN1C[C@H](CSCC(=O)N[C@H](Cc2ccccc2)C(=O)N[C@H]2CSSC[C@@H](C(=O)N[C@H](C(N)=O)[C@@H](C)O)NC(=O)[C@H]([C@@H](C)O)NC(=O)[C@H](CCCCN)NC(=O)[C@@H](Cc3c[nH]c4ccccc34)NC(=O)[C@H](Cc3ccc(O)c(I)c3)NC2=O)C[C@@H]2c3cccc4[nH]cc(c34)C[C@H]21 [Example 12],–,–,–
49.5,15.7,0.15,689,619,23.7,CC[C@@H]1NC(=O)[C@H](CCCCN)NC(=O)[C@@H](Cc2c[nH]c3ccccc23)NC(=O)[C@H](Cc2ccc(O)cc2)NC(=O)[C@@H](NC(=O)[C@@H](Cc2ccccc2)NC(=O)CSC[C@@H]2C[C@@H]3c4cccc5[nH]cc(c45)C[C@H]3N(C)C2)CSSC[C@@H](C(=O)N[C@H](C(N)=O)[C@@H](C)O)NC1=O [Example 30],–,–,–
154,24.2,0.37,1000,1510,143,CCCN1C[C@H](CSCC(=O)NCCN2CCN(CC(=O)N[C@H](Cc3ccccc3)C(=O)N[C@H]3CSSC[C@@H](C(=O)N[C@H](C(N)=O)[C@@H](C)O)NC(=O)[C@H](CC)NC(=O)[C@H](CCCCN)NC(=O)[C@@H](Cc4c[nH]c5ccccc45)NC(=O)[C@H](Cc4ccc(O)cc4)NC3=O)CC2)C[C@@H]2c3cccc4[nH]cc(c34)C[C@H]21 [Example 24],–,–,–
126,24.5,0.11,1550,167,86,CCCN1C[C@H](CSCC(=O)NCCOCCOCC(=O)N[C@H](Cc2ccccc2)C(=O)N[C@H]2CSSC[C@@H](C(=O)N[C@H](C(N)=O)[C@@H](C)O)NC(=O)[C@H](CC)NC(=O)[C@H](CCCCN)NC(=O)[C@@H](Cc3c[nH]c4ccccc34)NC(=O)[C@H](Cc3ccc(O)cc3)NC2=O)C[C@@H]2c3cccc4[nH]cc(c34)C[C@H]21 [Example 8],–,–,–
84.6,22.6,0.1,691,498,25.5,CCCN1C[C@H](CSCC(=O)N[C@H](Cc2ccccc2)C(=O)N[C@H]2CSSC[C@@H](C(=O)N[C@H](C(N)=O)[C@@H](C)O)NC(=O)[C@H](CC)NC(=O)[C@H](CCCCN)NC(=O)[C@@H](Cc3c[nH]c4ccccc34)NC(=O)[C@H](Cc3ccc(O)cc3)NC2=O)C[C@@H]2c3cccc4[nH]cc(c34)C[C@H]21 [Example 31],–,–,–

# Second part, the compound before the results:
SMILES,Ki (hsst3; [1]) [nM],Ki (hsst5; read-out: hsst5 Ki) [nM],Ki (hsst2) [nM],Ki (hsst1; [2]) [nM],Ki (hUTII) [nM],Ki (hDA2) [nM],Ki (hsst3) [nM],Ki (hsst5; hsst5 Ki) [nM],Ki (hsst1) [nM]
CCCN1C[C@H](CSCC(=O)NCCCC[C@@H](NC(C)=O)C(=O)N[C@H](Cc2ccccc2)C(=O)N[C@H]2CSSC[C@@H](C(=O)N[C@H](C(N)=O)[C@@H](C)O)NC(=O)[C@H]([C@@H](C)O)NC(=O)[C@H](CCCCN)NC(=O)[C@@H](Cc3c[nH]c4ccccc34)NC(=O)[C@H](Cc3ccc(O)c(I)c3)NC2=O)C[C@@H]2c3cccc4[nH]cc(c34)C[C@H]21 [Example 14],70.3,2.68,–,1340,1510,44.3,–,–,–
"CC[C@@H]1NC(=O)[C@H](CCCCN)NC(=O)[C@@H](Cc2c[nH]c3ccccc23)NC(=O)[C@H](Cc2ccc(O)cc2)NC(=O)[C@@H](NC(=O)[C@@H](Cc2ccc(O)cc2)NC(=O)[C@@H](Cc2ccc(O)cc2)NC(=O)[C@H](CCCCN)NC(=O)CN2CCN(CCNC(=O)CN3CCN(CCNC(=O)CSC[C@@H]4C[C@@H]5c6cccc7[nH]cc(c67)C[C@H]5N(C)C4)CC3)CC2)CSSC[C@@H](C(=O)N[C@H](C(N)=O)[C@@H](C)O)NC1=O [Example 28] (X2-[Pipz(1-CH2CO,4-CH2CH2NH)][Pipz(1-CH2CO,4-CH2CH2NH)]K[dY][dY]CY[dW]K[Abu]CT-NH2; disulfide 6-11)",–,–,0.11,–,564,506,156,5.13,661
CCCN1C[C@H](CSCC(=O)NCCCC[C@H](NC(=O)CSC[C@@H]2C[C@@H]3c4cccc5[nH]cc(c45)C[C@H]3N(CCC)C2)C(=O)N[C@H](Cc2ccc(O)cc2)C(=O)N[C@H](Cc2ccc(O)cc2)C(=O)N[C@H]2CSSC[C@@H](C(=O)N[C@H](C(N)=O)[C@@H](C)O)NC(=O)[C@H](CC)NC(=O)[C@H](CCCCN)NC(=O)[C@@H](Cc3c[nH]c4ccccc34)NC(=O)[C@H](Cc3ccc(O)cc3)NC2=O)C[C@@H]2c3cccc4[nH]cc(c34)C[C@H]21 [Example 10] (X1-K(X1)[dY][dY]CY[dW]K[Abu]CT-NH2; disulfide 4-9),324,26.5,0.15,549,177,8.22,–,–,–
CCCN1C[C@H](CSCC(=O)NCCCC[C@H](NC(=O)CSC[C@@H]2C[C@@H]3c4cccc5[nH]cc(c45)C[C@H]3N(CCC)C2)C(=O)N[C@H]2CSSC[C@@H](C(=O)N[C@H](C(N)=O)[C@@H](C)O)NC(=O)[C@H](CC)NC(=O)[C@H](CCCCN)NC(=O)[C@@H](Cc3c[nH]c4ccccc34)NC(=O)[C@H](Cc3ccc(O)cc3)NC2=O)C[C@@H]2c3cccc4[nH]cc(c34)C[C@H]21 [Example 9],–,–,0.54,–,635,8.3,536,99.5,273
